Test results published in patent publication US20060069132A1, “Azolecarboxamide herbicides” (priority 2004, published 2006).

Experiments:
[1] = test system: common ragweed; assay: Test C pre-/postemergence herbicide test; format: in vivo, Ambrosia elatior; design: key to Plant response rating, Ragweed: 0 = no effect, 100 = complete control; conditions: preemergence
Source text: (§1) Seeds of plant species selected from bermudagrass (Cynodon dactylon (L.) Pers.), Surinam grass (Urochloa decumbens (Staph) R. D. Webster, previously named Brachiaria decumbens Stapf), cocklebur (Xanthium strumarium L.), corn (Zea mays L.), large crabgrass (Digitaria sanguinalis (L.) Scop.), woolly cupgrass (Eriochloa villosa (Thunb.) Kunth), giant foxtail (Setaria faberi Herrm.), goosegrass (Eleusine indica (L.) Gaertn.), johnsongrass (Sorghum halepense (L.) Pers.), kochia (Kochia scoparia (L.) Schrad.), lambsquarters (Chenopodium album L.), morningglory (Ipomoea coccinea L.), eastern black nightshade (Solanum ptycanthum Dunal), yellow nutsedge (Cyperus esculentus L.), pigweed (Amaranthus retroflexus L.), common ragweed (Ambrosia elatior L.), soybean (Glycine max (L.) Merr.), common (oilseed) sunflower (Helianthus annuus L.) and velvetleaf (Abutilon theophrasti Medik.) were planted and treated preemergence with test chemicals formulated in a non-phytotoxic solvent mixture which included a surfactant.
(§2) At the same time, plants selected from these crop and weed species and also winter barley (Hordeum vulgare L.), blackgrass (Alopecurus myosuroides Huds.), canarygrass (Phalaris minor Retz.), chickweed (Stellaria media (L.) Vill.), downy bromegrass (Bromus tectorum L.), green foxtail (Setaria viridis (L.) Beauv.), Italian ryegrass (Lolium multiflorum Lam.), wheat (Triticum aestivum L.), wild oat (Avenafatua L.) and windgrass (Apera spica-venti (L.) Beauv.) were treated with postemergence applications of some of the test chemicals formulated in the same manner. Plants ranged in height from 2 to 18 cm (1- to 4-leaf stage) for postemergence treatments. Plant species in the flooded paddy test consisted of rice (Oryza sativa), smallflower umbrella sedge (Cyperus difformis L.), ducksalad (Heteranthera limosa (Sw.) Willd.) and barnyardgrass (Echinochloa crus-galli (L.) Beauv.) grown to the 2-leaf stage for testing. Treated plants and controls were maintained in a greenhouse for 12 to 14 days, after which time all species were compared to controls and visually evaluated. Plant response ratings, summarized in Table C, are based on a scale of 0 to 100 where 0 is no effect and 100 is complete control. A dash (-) response means no test result.

[2] = test system: large crabgrass; assay: Test C pre-/postemergence herbicide test; format: in vivo, Digitaria sanguinalis; conditions: preemergence
Source text: as §1, §2

[3] = test system: pigweed; assay: Test C pre-/postemergence herbicide test; format: in vivo, Amaranthus retroflexus; conditions: preemergence
Source text: as §1, §2

[4] = test system: goosegrass; assay: Test C pre-/postemergence herbicide test; format: in vivo, Eleusine indica; conditions: preemergence
Source text: as §1, §2

[5] = test system: pigweed; assay: Test B pre-/postemergence herbicide test; format: in vivo, Amaranthus retroflexus
In short: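 Plants compared with untreated controls 13–15 days post-treatment and given a visual 0–100 injury score. Applications: preemergence to seeds; postemergence at 1- to 4-leaf (2–18 cm); paddy species flooded, 2-leaf stage. Vehicle non-phytotoxic, surfactant included.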

[6] = test system: kochia; assay: Test C pre-/postemergence herbicide test; format: in vivo, Kochia scoparia; conditions: preemergence
Source text: as §1, §2

[7] = test system: lambsquarters; assay: Test C pre-/postemergence herbicide test; format: in vivo, Chenopodium album; conditions: preemergence
Source text: as §1, §2

[8] = test system: wild oat; assay: Test B postemergence herbicide test; format: in vivo, Avena fatua
In short: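 Each value is a visual 0–100 response rating taken against controls 13 to 15 days after treatment in the greenhouse. Plants received formulated chemical postemergence at the 1- to 4-leaf stage or, in flooded paddy, at the 2-leaf stage.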

[9] = 500 g ai/ha, scale 0 to 100 (0 no effect, 100 complete control), visual, 12 to 14 days
[10] = 125 g ai/ha, scale 0 (no effect) to 100 (complete control), visual, 12 to 14 days
[11] = 125 g ai/ha; 0 = no effect, 100 = complete control; preemergence
[12] = 125 g ai/ha; visual rating, scale 0 (no effect) to 100 (complete control); postemergence
[13] = 500 g ai/ha; visual rating, 0 = no effect, 100 = complete control; preemergence
[14] = postemergence, 500 g ai/ha; scale 0 to 100, 0 is no effect, 100 is complete control
[15] = postemergence, 125 g ai/ha; visual rating, scale 0 (no effect) to 100 (complete control)

SMILES | Plant response rating, Ragweed ([1]; 62 g ai/ha, scale 0 to 100) | Plant response rating, Ragweed ([1]; 250 g ai/ha, scale 0-100) | Plant response rating, Ragweed [1, 9] | Plant response rating, Crabgrass, Large [2, 10] | Plant response rating, Crabgrass, Large ([2]; 250 g ai/ha, scale 0-100) | Plant response rating, Crabgrass, Large [2, 9] | Plant response rating, Pigweed ([3]; 62 g ai/ha, scale 0 to 100) | Plant response rating, Pigweed [3, 10] | Plant response rating, Pigweed ([3]; 250 g ai/ha, scale 0-100) | Plant response rating, Pigweed [3, 9] | Plant response rating, Goosegrass ([4]; 62 g ai/ha, scale 0 to 100) | Plant response rating, Goosegrass [4, 10] | Plant response rating, Goosegrass ([4]; 250 g ai/ha, scale 0-100) | Plant response rating, Goosegrass [4, 9] | Pigweed plant response rating (0 to 100 scale) [5, 11] | Pigweed plant response rating [5, 12] | Plant response rating, Pigweed [5, 13] | Pigweed plant response rating [5, 14] | Plant response rating, Kochia ([6]; 62 g ai/ha, scale 0 to 100) | Oat, Wild plant response rating [8, 14] | also measured
CCN1N=C(C(C)(C)C)CC1C(=O)Nc1cc(C(=O)N2CCCC2)ccc1F (racemic) [Compound 309] | 50 | 70 | 100 | 80 | 100 | 100 | 80 | 100 | 100 | 100 | 85 | 85 | 100 | 100 | 70 | 50 | 100 | 70 | 100 | 40 | Plant response rating, Kochia [6, 10]: 100; Plant response rating, Kochia ([6]; 250 g ai/ha, scale 0-100): 100; Plant response rating, Kochia [6, 9]: 100; Plant response rating, Lambsquarters ([7]; 62 g ai/ha, scale 0 to 100): 100; Plant response rating, Lambsquarters [7, 10]: 100; Plant response rating, Lambsquarters ([7]; 250 g ai/ha, scale 0-100): 100; Plant response rating, Lambsquarters [7, 9]: 100; Oat, Wild plant response rating [8, 12]: 20
CCC1=NN(C(C)(C)C)CC1C(=O)Nc1cc(C(=O)N2CC=CC2)ccc1F (racemic) [Compound 340] | 0 | 20 | 75 | – | 100 | 100 | 70 | – | 100 | 100 | 5 | – | 85 | 90 | – | 50 | 100 | 80 | 10 | 30 | Plant response rating (0 = no effect, 100 = complete control), Ragweed ([1]; 125 g ai/ha): 0; Plant response rating, Crabgrass, Large ([2]; 62 g ai/ha, scale 0 to 100): 50; Plant response rating (0 = no effect, 100 = complete control), Crabgrass, Large ([2]; 125 g ai/ha): 70; Plant response rating (0 = no effect, 100 = complete control), Pigweed ([3]; 125 g ai/ha): 85; Plant response rating (0 = no effect, 100 = complete control), Goosegrass ([4]; 125 g ai/ha): 60; Plant response rating (0 to 100 scale), Pigweed ([5]; 125 g ai/ha; 0 is no effect, 100 is complete control; preemergence): 100; Plant response rating (0 = no effect, 100 = complete control), Kochia ([6]; 125 g ai/ha): 20; Plant response rating, Kochia ([6]; 250 g ai/ha, scale 0-100): 90; Plant response rating, Kochia [6, 9]: 100; Plant response rating, Lambsquarters ([7]; 62 g ai/ha, scale 0 to 100): 70; Plant response rating (0 = no effect, 100 = complete control), Lambsquarters ([7]; 125 g ai/ha): 80; Plant response rating, Lambsquarters ([7]; 250 g ai/ha, scale 0-100): 100; Plant response rating, Lambsquarters [7, 9]: 100; Oat, Wild plant response rating [8, 12]: 20
CCn1nc(C(C)(C)C)cc1C(=O)Nc1cc(C(=O)N2CCCC2)ccc1F [Compound 242] | 95 | 100 | 100 | 100 | 100 | 100 | 100 | 100 | 100 | 100 | 100 | 100 | 100 | 100 | 100 | – | 100 | 80 | – | 30 | Plant response rating, Crabgrass, Large ([2]; 62 g ai/ha, scale 0 to 100): 100; Pigweed plant response rating [5, 15]: 60; Oat, Wild plant response rating [8, 15]: 10
